Data taken from ChEMBL document CHEMBL1124317, “Rationale for the synthesis and preliminary biological evaluation of highly active new antitumor nitrosoureido sugars” (J Med Chem, 1989).

Tests used:
[1] = (§1) Lethal dose was evaluated in female mouse; format: toxicity, organism-based; settings: in vivo
[2] = species: Mus musculus; experiment: as §1; format: toxicity, organism-based; settings: in vivo
[3] = system: Mus musculus; experiment: Anti tumor activity l when treated to mice with B16 Melanocarcinoma with 10 mg/kg dose of compound intraperitoneally was expressed as percent of treated to control (T/C %); format: functional; settings: route intraperitoneal
[4] = system: Mus musculus; experiment: The number of L1210 leukemia mice survived after 60 days with compound injected by a dose of 10 mg/kg intra peritoneally; 8/8; format: functional
[5] = system: Mus musculus; experiment: The number of L1210 leukemia mice survived after 60 days with compound injected by a dose of 2.5 mg/kg intraperitoneally; 0/10; format: functional; settings: route intraperitoneal
[6] = Ratio of mice died to that of mice treated with 20 mg/kg of compound in olive oil intraperitoneally with B16 Melanocarcinoma; 0/20; format: functional; settings: route intraperitoneal
[7] = (§2) Lethal dose was evaluated in male mouse; format: toxicity, organism-based; settings: in vivo
[8] = species: Mus musculus; experiment: as §2; format: toxicity, organism-based; settings: in vivo
[9] = system: Mus musculus; experiment: The number of B16 melanocarcinoma mice survived after 60 days with compound in olive oil injected by a dose of 20 mg/kg intraperitoneally; 3/20; format: functional; settings: route intraperitoneal
[10] = system: Mus musculus; experiment: Anti tumor activity l when treated to mice with L1210 leukemia with 0.625 mg/kg dose of compound intraperitoneally was expressed as percent of treated to control (T/C %); format: functional; settings: route intraperitoneal
[11] = system: Mus musculus; experiment: The number of L1210 leukemia mice survived after 30 days with compound injected by a dose of 0.625 mg/kg intraperitoneally; 0/8; format: functional; settings: route intraperitoneal
[12] = Ratio of mice died to that of mice treated with 5 mg/kg of compound in aqueous solution intraperitoneally with L1210 leukemia; 0/10; format: functional; settings: route intraperitoneal
[13] = system: Mus musculus; experiment: The number of B16 Melanocarcinoma mice survived after 60 days with compound injected by a dose of 30 mg/kg intraperitoneally; 9/10; format: functional; settings: route intraperitoneal
[14] = Mortality range of the mice with B16 Melanocarcinoma treated with 20 mg/kg of dose intraperitoneally with no of mice survived/no of mice treated; 0/10; format: functional; settings: route intraperitoneal
[15] = system: Mus musculus; experiment: Median survival time of the non surviving mice; treated with 5 mg/kg of compound to mice with L1210 leukemia; 11-32; format: functional
[16] = system: Mus musculus; experiment: The number of B16 Melanocarcinoma mice survived after 30 days with compound injected by a dose of 5 mg/kg intraperitoneally; 9/10; format: functional; settings: route intraperitoneal
[17] = system: Mus musculus; experiment: The number of L1210 leukemia mice survived after 30 days with compound injected by a dose of 20 mg/kg intraperitoneally; 10/10; format: functional; settings: route intraperitoneal
[18] = system: Mus musculus; experiment: The number of B16 melanocarcinoma mice survived after 30 days with compound in olive oil injected by a dose of 20 mg/kg intraperitoneally; 13/20; format: functional; settings: route intraperitoneal
[19] = system: Mus musculus; experiment: Anti tumor activity l when treated to mice with L1210 leukemia with 1.25 mg/kg dose of compound intraperitoneally was expressed as percent of treated to control (T/C %); format: functional; settings: route intraperitoneal
[20] = Mortality range of the mice with L1210 leukemia treated with 10 mg/kg of dose intraperitoneally with no of mice survived/no of mice treated; 0/8; format: functional; settings: route intraperitoneal
[21] = system: Mus musculus; experiment: The number of L1210 leukemia mice survived after 30 days with compound injected by a dose of 2.5 mg/kg intraperitoneally; 8/8; format: functional; settings: route intraperitoneal
[22] = system: Mus musculus; experiment: The number of L1210 leukemia mice survived after 60 days with compound injected by a dose of 30 mg/kg intraperitoneally; 9/10; format: functional; settings: route intraperitoneal
[23] = system: Mus musculus; experiment: Anti tumor activity in olive oil when treated to mice with L1210 leukemia with 20 mg/kg dose of compound intraperitoneally was expressed as percent of treated to control (T/C %); format: functional; settings: route intraperitoneal
[24] = Ratio of mice died to that of mice treated with 20 mg/kg of compound in olive oil intraperitoneally with L1210 leukemia tumor; 0/15; format: functional; settings: route intraperitoneal
[25] = system: Mus musculus; experiment: Median survival time of the non surviving mice; treated with 5 mg/kg of compound to mice with B16 Melanocarcinoma; 30-47; format: functional
[26] = system: Mus musculus; experiment: The number of B16 Melanocarcinoma mice survived after 30 days with compound injected by a dose of 10 mg/kg intraperitoneally; 10/10; format: functional; settings: route intraperitoneal
[27] = system: Mus musculus; experiment: Median survival time of the non surviving mice; treated with 20 mg/kg of compound in olive oil to mice with B16 Melanocarcinoma; 12-47; format: functional
[28] = system: Mus musculus; experiment: Anti tumor activity l when treated to mice with B16 Melanocarcinoma with 5 mg/kg dose of compound intraperitoneally was expressed as percent of treated to control (T/C %); format: functional; settings: route intraperitoneal
[29] = system: Mus musculus; experiment: Anti tumor activity l when treated to mice with L1210 leukemia with 5 mg/kg dose of compound intraperitoneally was expressed as percent of treated to control (T/C %); format: functional; settings: route intraperitoneal
[30] = Mortality range of the mice with B16 Melanocarcinoma treated with 10 mg/kg of dose intraperitoneally with no of mice survived/no of mice treated; 0/10; format: functional; settings: route intraperitoneal
[31] = system: Mus musculus; experiment: The number of L1210 leukemia mice survived after 30 days with compound in aqueous solution injected by a dose of 20 mg/kg intraperitoneally; 6/10; format: functional; settings: route intraperitoneal
[32] = Mortality range of the mice with B16 Melanocarcinoma treated with 30 mg/kg of dose intraperitoneally with no of mice survived/no of mice treated; 0/10; format: functional; settings: route intraperitoneal
[33] = system: Mus musculus; experiment: The number of L1210 leukemia mice survived after 60 days with compound injected by a dose of 5 mg/kg intraperitoneally; 2/10; format: functional; settings: route intraperitoneal
[34] = system: Mus musculus; experiment: The number of L1210 leukemia mice survived after 30 days with compound injected by a dose of 1.25 mg/kg intraperitoneally; 0/8; format: functional; settings: route intraperitoneal
[35] = Mortality range of the mice with L1210 leukemia treated with 1.25 mg/kg of dose intraperitoneally with no of mice survived/no of mice treated; 0/8; format: functional; settings: route intraperitoneal
[36] = system: Mus musculus; experiment: The number of L1210 leukemia mice survived after 30 days with compound injected by a dose of 10 mg/kg intraperitoneally; 8/8; format: functional; settings: route intraperitoneal
[37] = system: Mus musculus; experiment: Anti tumor activity in olive oil when treated to mice with B16 melanocarcinoma with 20 mg/kg dose of compound intraperitoneally was expressed as percent of treated to control (T/C %); format: functional; settings: route intraperitoneal
[38] = system: Mus musculus; experiment: The number of B16 Melanocarcinoma mice survived after 30 days with compound injected by a dose of 20 mg/kg intraperitoneally; 10/10; format: functional; settings: route intraperitoneal
[39] = system: Mus musculus; experiment: The number of L1210 leukemia mice survived after 30 days with compound injected by a dose of 2.5 mg/kg intraperitoneally; 0/10; format: functional; settings: route intraperitoneal
[40] = Mortality range of the mice with L1210 leukemia treated with 2.5 mg/kg of dose intraperitoneally with no of mice survived/no of mice treated; 0/8; format: functional; settings: route intraperitoneal
[41] = system: Mus musculus; experiment: The number of L1210 leukemia mice survived after 30 days with compound injected by a dose of 5 mg/kg intraperitoneally; 8/8; format: functional; settings: route intraperitoneal
[42] = system: Mus musculus; experiment: Median survival time of the non surviving mice; treated with 20 mg/kg of compound in olive oil to mice with L1210 leukemia tumor; […]; format: functional
[43] = system: Mus musculus; experiment: The number of L1210 leukemia mice survived after 30 days with compound injected by a dose of 5 mg/kg intraperitoneally; 3/10; format: functional; settings: route intraperitoneal
[44] = system: Mus musculus; experiment: The number of L1210 leukemia mice survived after 60 days with compound in aqueous solution injected by a dose of 20 mg/kg intraperitoneally; 6/10; format: functional; settings: route intraperitoneal

CO[C@@H]1C[C@@H](NC(=O)N(CCCl)N=O)[C@H](O)[C@@H](CO)O1 [ECOMUSTINE]
LD50 [1]: 40.7 mg/kg
LD10 [2]: 29.4 mg/kg
LD90 [2]: 56.4 mg/kg
T/C [3]: 233%
Survivals [4]: 8
Survivals [5]: 0
Ratio [6]: 0
LD50 [7]: 43.3 mg/kg
LD10 [8]: 31.2 mg/kg
LD90 [8]: 60 mg/kg
Survivals [9]: 3
T/C [10]: 125%
Survivals [11]: 0
Ratio [12]: 0
Survivals [13]: 9
Ratio [14]: 0
Median survival time [15]: 15.4
Survivals [16]: 9
Survivals [17]: 10
Survivals [18]: 13
T/C [19]: 188%
Ratio [20]: 0
Survivals [21]: 8
Survivals [22]: 9
T/C [23]: 644%
Ratio [24]: 0
Median survival time [25]: 40
Survivals [26]: 10
Median survival time [27]: 33.33
T/C [28]: 203%
T/C [29]: 164%
Ratio [30]: 0
Survival after 30 days [31]: 6
Ratio [32]: 0
Survivals [33]: 2
Survival after 30 days [34]: 0
Ratio [35]: 0
Survivals [36]: 8
T/C [37]: 239%
Survivals [38]: 10
Survivals [39]: 0
Ratio [40]: 0
Survivals [41]: 8
Median survival time [42]: 57.5
Survivals [43]: 3
Survivals [44]: 6
